Measured values as given in US12419874B2, “GLP-1R agonist compound and use thereof” (Chongqing Pharmaceutical Research Institute Co., Ltd., priority 2024, dated 2025).

Key:
[1] = biological target: T1, GLP-1R (Homo sapiens, UniProt P43220); test: GLP-1R agonistic activity by cAMP detection kit in HEK293-GLP-1R-luc cells (Example 58); assay type: cell-based; conditions: 30 min incubation
Protocol: (§1) The agonistic activities of the compounds of the present disclosure on GLP-1R were evaluated by detecting the generation of cAMP.
• (1) Cell line: HEK293-GLP-1R-luc Stable Cell Line (Cobioer, CBP71117); • (2) Culture medium: DMEM+10% FBS (Gibco); • (3) Kit: cAMP detection kit (PerkinElmer). 2. Experimental Procedures • (1) HEK293-GLP1R cells were inoculated in a 384-well plate at a density of 2000 cells per well; • (2) 4× working solution of each compound was formulated; • (3) 5 μL of 4× working solution of each compound was added to corresponding well and incubated at 37° C. for 30 min; • (4) 10 μL of Eu-cAMP tracer diluted with Lysis Buffer (1/50) was added to each well; • (5) 10 μL of Ulight-anti-cAMP diluted with Lysis Buffer (1/150) was added to each well; • (6) The plate was incubated at room temperature for 1 h; • (7) The plate was read by a multimode microplate reader (excitation wavelength: 320 nm; emission wavelength: 665 nm and 620 nm). 3. Data Analysis • (1) % Activity was calculated by the following formula: % Activity=100−(Signalcmpd−SignalAve-PC)/(SignalAve-VC−SignalAve-PC)×100 • (2) The dose-response curve was plotted to calculate EC50: Y=Bottom+(Top−Bottom)/(1+10^(Log EC50−X)*HillSlope)) • X: log of agonist concentration; Y: Activity. 4. Experimental Results

[2] = biological target: T1, GLP-1R; test: GLP-1R agonistic activity by One-Lite luciferase assay in HEK293-GLP-1R-luc cells (Example 59); assay type: cell-based; conditions: 6 h incubation, read-out: cAMP EC50
Protocol: as §1
• (1) Cell line: HEK293-GLP-1R-luc Stable Cell Line (Cobioer, CBP71117); • (2) Culture medium: DMEM+10% FBS (Gibco); • (3) Kit: One-Lite™ kit Luciferase Assay System (Vazyme). 2. Experimental Procedures • (1) HEK293-GLP1R cells were inoculated in a 96-well plate at a density of 30000 cells per well; • (2) 10× working solution of each compound was formulated; • (3) 10 μL of 10× working solution of each compound was added to corresponding well and incubated at 37° C. for 6 h; • (4) 100 μL of One-Lite Luciferase Assay Substrate formulated using One-Lite Luciferase Assay Buffer was added to each well; • (5) The plate was incubated at room temperature for 3 min; • (6) The plate was read by a multimode microplate reader to detect chemiluminescence. 3. Data Analysis • (1) % Activity was calculated by the following formula: % Activity=100−(Signalcmpd−SignalAve-PC)/(SignalAve-VC−SignalAve-PC)×100 • (2) The dose-response curve was plotted to calculate EC50: Y=Bottom+(Top−Bottom)/(1+10^(Log EC50−X)*HillSlope)) • X: log of agonist concentration; Y: Activity. 4. Experimental Results

[3] = In vivo pharmacokinetics in rats, oral; parameters: species or system SD rats; conditions: for AUC(0-t) / Cmax / half-life: rat, plasma, SD rats, PO, 1 mg/kg
Protocol: The compounds of the present disclosure were formulated with […]+90% 100 mM glycine-64 mM NaOH, and orally administered to fasted SD rats at a dose of 1 mg/kg or 5 mg/kg, respectively. At different time points (0.25, 0.5, 1.0, 2.0, 4.0, 5.0, 6.0, 7.0, 8.0, and 24 h) after administration, about 50 μL of blood samples were collected from veins into anticoagulant tubes containing EDTA-K2, and centrifuged to separate plasma. The plasma concentrations of the compounds were determined by LC-MS/MS. WinNonlin was used to calculate the pharmacokinetic parameters by using the non-compartmental analysis, and the experimental results were listed in Table 9.

[4] = rats, oral, versus example compound 67 in WO2018056453, in words

T1 sequence (P43220 24-463): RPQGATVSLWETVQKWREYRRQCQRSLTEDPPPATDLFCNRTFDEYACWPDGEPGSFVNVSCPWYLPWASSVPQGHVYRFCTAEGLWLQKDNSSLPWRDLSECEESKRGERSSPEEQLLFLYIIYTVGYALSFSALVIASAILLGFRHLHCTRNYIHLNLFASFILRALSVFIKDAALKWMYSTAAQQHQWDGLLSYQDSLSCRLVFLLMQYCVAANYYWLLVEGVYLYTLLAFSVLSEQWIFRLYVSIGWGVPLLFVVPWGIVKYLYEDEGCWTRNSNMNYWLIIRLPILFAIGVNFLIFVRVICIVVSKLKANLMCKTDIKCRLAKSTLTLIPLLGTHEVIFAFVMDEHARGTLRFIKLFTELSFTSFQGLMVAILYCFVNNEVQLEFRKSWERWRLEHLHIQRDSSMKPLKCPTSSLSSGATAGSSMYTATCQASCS

Cc1cc(-n2nc3c(c2-n2ccn(-c4ccc5c(cnn5C)c4F)c2=O)[C@H](C)N(C(=O)c2cc4cc([C@H]5CCOC(C)(C)C5)ccc4n2[C@@]2(c4noc(=O)[nH]4)C[C@@H]2C)CC32CCNCC2)cc(C)c1F [Compound 57]
EC50 [1]: ≤ 0.1 nM | EC50 [2]: ≤ 20 nM

Cc1cc(-n2nc3c(c2-n2ccn(-c4ccc5c(cnn5C)c4F)c2=O)[C@H](C)N(C(=O)c2cc4cc([C@H]5CCOC(C)(C)C5)ccc4n2[C@@]2(c4noc(=O)[nH]4)C[C@@H]2C)CC32CCOCC2)cc(C)c1F [Compound 43]
EC50 [1]: ≤ 0.1 nM | EC50 [2]: ≤ 20 nM

Cc1cc(-n2nc3c(c2-n2ccn(-c4ccc5c(cnn5C)c4F)c2=O)[C@H](C)N(C(=O)c2cc4cc([C@H]5CCOC(C)(C)C5)ccc4n2[C@@]2(c4noc(=O)[nH]4)C[C@@H]2C)CC32CC2F)cc(C)c1F (stereo partly shown) [Compound 228]
AUC(0-t) [3]: 2400 ng·h/mL | Cmax [3]: 216 ng/mL | half-life [3]: 13 h | maximum plasma concentration Cmax compared with the control compound [3, 4]: higher | oral exposure AUC compared with the control compound [3, 4]: higher | EC50 [2]: ≤ 20 nM

C=C1CC2(C1)CN(C(=O)c1cc3cc([C@H]4CCOC(C)(C)C4)ccc3n1[C@@]1(c3noc(=O)[nH]3)C[C@@H]1C)[C@@H](C)c1c2nn(-c2cc(C)c(F)c(C)c2)c1-n1ccn(-c2ccc3c(cnn3C)c2F)c1=O [Compound 218]
AUC(0-t) [3]: 990 ng·h/mL | Cmax [3]: 110 ng/mL | half-life [3]: 11.6 h | EC50 [2]: ≤ 20 nM

Cc1cc(-n2nc3c(c2-n2ccn(-c4ccc5c(cnn5C)c4F)c2=O)[C@H](C)N(C(=O)c2cc4cc([C@H]5CCOC(C)(C)C5)ccc4n2[C@@]2(c4noc(=O)[nH]4)C[C@@H]2C)CC32C[C@H]2C)cc(C)c1F (stereo partly shown) [Compound 226]
AUC(0-t) [3]: 1480 ng·h/mL | Cmax [3]: 160 ng/mL | half-life [3]: 9.3 h | EC50 [2]: ≤ 20 nM

Cc1cc(-n2nc3c(c2-n2ccn(-c4ccc5c(cnn5C)c4F)c2=O)[C@H](C)N(C(=O)c2cc4cc([C@H]5CCOC(C)(C)C5)ccc4n2[C@@]2(c4noc(=O)[nH]4)C[C@@H]2C)CC32CCN(C)CC2)cc(C)c1F [Compound 59]
EC50 [1]: ≤ 0.1 nM | EC50 [2]: ≤ 20 nM

Cc1cc(-n2nc3c(c2-n2ccn(-c4ccc5c(cnn5C)c4F)c2=O)[C@H](C)N(C(=O)c2cc4cc([C@H]5CCOC(C)(C)C5)ccc4n2[C@@]2(c4noc(=O)[nH]4)C[C@@H]2C)CC32CC(F)(F)C2)cc(C)c1F [Compound 180]
AUC(0-t) [3]: 1120 ng·h/mL | Cmax [3]: 129 ng/mL | half-life [3]: 6.4 h | EC50 [2]: ≤ 20 nM

Cc1cc(-n2nc3c(c2-n2ccn(-c4ccc5c(cnn5C)c4F)c2=O)[C@H](C)N(C(=O)c2cc4cc([C@H]5CCOC(C)(C)C5)ccc4n2[C@@]2(c4noc(=O)[nH]4)C[C@@H]2C)CC32CCN(C(N)=O)CC2)cc(C)c1F [Compound 162]
EC50 [2]: ≤ 20 nM

C[C@H]1c2c(nn(-c3ccc(F)c(C4CC4)c3)c2-n2ccn(-c3ccc4c(cnn4C)c3F)c2=O)C2(CC2)CN1C(=O)c1cc2cc([C@H]3CCOC(C)(C)C3)ccc2n1C1(c2noc(=O)[nH]2)CC1 [Compound 170]
EC50 [2]: ≤ 20 nM

Cc1cc(-n2nc3c(c2-n2ccn(-c4ccc5c(ccn5C)c4F)c2=O)[C@H](C)N(C(=O)c2cc4cc([C@H]5CCOC(C)(C)C5)ccc4n2[C@@]2(c4noc(=O)[nH]4)C[C@@H]2C)CC32CCCNC2)cc(C)c1F (single isomer, unassigned) [Compound 51-B]
EC50 [2]: ≤ 20 nM

Cc1cc(-n2nc3c(c2-n2ccn(-c4ccc5c(cnn5C)c4F)c2=O)[C@H](C)N(C(=O)c2cc4cc([C@H]5CCOC(C)(C)C5)ccc4n2[C@@]2(c4noc(=O)[nH]4)C[C@@H]2C)CC32CC2(F)F)cc(C)c1F (stereo partly shown) [Compound 225]
EC50 [2]: ≤ 20 nM

Cc1cc(-n2nc3c(c2-n2ccn(-c4ccc5c(cnn5C)c4F)c2=O)[C@H](C)N(C(=O)c2cc4cc(C5CCOC(C)(C)C5)ccn4c2C2(c4noc(=O)[nH]4)CC2)CC32CC2)cc(C)c1F (single isomer, unassigned) [Compound 185-B]
EC50 [2]: 20 to 100 nM

[2H]C([2H])([2H])OC1CC2(C1)CN(C(=O)c1cc3cc([C@H]4CCOC(C)(C)C4)ccc3n1[C@@]1(c3noc(=O)[nH]3)C[C@@H]1C)[C@@H](C)c1c2nn(-c2cc(C)c(F)c(C)c2)c1-n1ccn(-c2ccc3c(cnn3C)c2F)c1=O (stereo partly shown) [Compound 207]
EC50 [2]: ≤ 20 nM

Cc1cc(-n2nc3c(c2-n2ccn(-c4ccc5c(cnn5C)c4F)c2=O)[C@H](C)N(C(=O)c2cc4cc([C@H]5CCOC(C)(C)C5)ccc4n2[C@@]2(c4noc(=O)[nH]4)C[C@@H]2C)CC32CCN(S(C)(=O)=O)CC2)cc(C)c1F [Compound 156]
EC50 [2]: ≤ 20 nM

Cc1cc(-n2nc3c(c2-n2ccn(-c4ccc5c(cnn5C)c4F)c2=O)[C@H](C)N(C(=O)c2cc4cc([C@H]5CCOC(C)(C)C5)ccc4n2[C@@]2(c4noc(=O)[nH]4)C[C@@H]2C)CC32C[S+]([O-])C2)cc(C)c1F (stereo partly shown) [Compound 190]
EC50 [2]: ≤ 20 nM

C[C@H]1C[C@]1(c1noc(=O)[nH]1)n1c(C(=O)N2C3CCCC2c2c(nn(-c4ccc(F)c(C5CC5)c4)c2-n2ccn(-c4ccc5c(cnn5C)c4F)c2=O)C3)cc2cc([C@H]3CCOC(C)(C)C3)ccc21 (stereo partly shown) [Compound 151]
EC50 [2]: ≤ 20 nM

COC1CCC2(C1)CN(C(=O)c1cc3cc([C@H]4CCOC(C)(C)C4)ccc3n1[C@@]1(c3noc(=O)[nH]3)C[C@@H]1C)[C@@H](C)c1c2nn(-c2cc(C)c(F)c(C)c2)c1-n1ccn(-c2ccc3c(cnn3C)c2F)c1=O (stereo partly shown) [Compound 210]
EC50 [2]: ≤ 20 nM

Cc1cc(-n2nc3c(c2-n2ccn(-c4ccc5c(cnn5C)c4F)c2=O)[C@H](C)N(C(=O)c2cc4cc([C@H]5CCOC(C)(C)C5)ccc4n2[C@@]2(c4noc(=O)[nH]4)C[C@@H]2C)CC32CC=CC2)cc(C)c1F [Compound 172]
EC50 [2]: ≤ 20 nM

Cc1cc(-n2nc3c(c2-n2ccn(-c4ccc5c(cnn5C)c4F)c2=O)[C@H](C)N(C(=O)c2cc4cc([C@H]5CCOC(C)(C)C5)ccc4n2[C@@]2(c4noc(=O)[nH]4)C[C@@H]2C)CC32CC(OC(C)C)C2)cc(C)c1F (stereo partly shown) [Compound 192]
EC50 [2]: ≤ 20 nM

Cc1cc(-n2nc3c(c2-n2ccn(-c4ccc5c(cnn5C5CC5)c4F)c2=O)[C@H](C)N(C(=O)c2cc4cc([C@H]5CCOC(C)(C)C5)ccc4n2[C@@]2(c4noc(=O)[nH]4)C[C@@H]2C)CC32CC2)cc(C)c1F [Compound 221]
EC50 [2]: ≤ 20 nM
